Data taken from PubChem BioAssay AID2060616 (Molecular Pharmacology Branch, DTP, NCI, 2025).
Values joined by “and” are separate entries in the source; they are usually repeats but may differ in a detail not shown here. Equal entries are not always repeated.

System: 377384-186-R-J1-PDC complex spheroid viability
Experiment: Anticancer human tumor 377384-186-R-J1-PDC patient-derived pancreatic carcinoma cell line growth inhibition [CLK]
Conditions: for viability, T/C: stronger effect = lower value
Outline: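 Patient-derived tumor cells grown as complex spheroids with HUVEC endothelial cells and mesenchymal stem cells, treated with drug combinations. Concentrations descend in half-log steps from near clinical Cmax, or from 10 microM if Cmax unknown.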

[1] = curve of first compound, second compound 0.0316 µM
[2] = curve of first compound, second compound 0.1 µM
[3] = curve of first compound, second compound 0.316 µM
[4] = curve of first compound, second compound 1 µM
[5] = curve of first compound, second compound 3.16 µM
[6] = curve of first compound, second compound 10 µM
[7] = second compound 0.0316 µM, first compound 0.0316 µM
[8] = second compound 0.0316 µM, first compound 0.1 µM
[9] = second compound 0.1 µM, first compound 0.0316 µM
[10] = second compound 0.1 µM, first compound 0.1 µM
[11] = second compound 0.316 µM, first compound 0.0316 µM
[12] = second compound 0.316 µM, first compound 0.1 µM
[13] = second compound 1 µM, first compound 0.0316 µM
[14] = second compound 1 µM, first compound 0.1 µM
[15] = second compound 3.16 µM, first compound 0.0316 µM
[16] = second compound 3.16 µM, first compound 0.1 µM
[17] = second compound 10 µM, first compound 0.0316 µM
[18] = second compound 10 µM, first compound 0.1 µM
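Further: spheroids exposed to agents for 7 days before reading.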
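Wherever viability, T/C is given: luminescence signal used as a stand-in for viable cells.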

For O=C(c1cc(Cc2n[nH]c(=O)c3ccccc23)ccc1F)N1CCN(C(=O)C2CC2)CC1 + CNC(=O)c1ccc(Nc2nc(OC3CCCC3)c3c(-c4ccc5nc(C)oc5c4)c[nH]c3n2)c(OC)c1, the IC50 [1] was 6380 nM, the IC50 [2] was 991 nM and the IC50 [3] was < 31.6 nM. For the same molecule, the IC50 [4] was < 31.6 nM, the IC50 [5] was < 31.6 nM and the IC50 [6] was < 31.6 nM. The viability, T/C [7] was 83.7%, the viability, T/C [8] was 84.7% and the viability, T/C (second compound 0.0316 µM, first compound 0.316 µM) was 78.9%. The viability, T/C (second compound 0.0316 µM, first compound 1 µM) was 75.9%, the viability, T/C (second compound 0.0316 µM, first compound 3.16 µM) was 64.9% and the viability, T/C (second compound 0.0316 µM, first compound 10 µM) was 40.3%. For the same molecule, the viability, T/C [9] was 52.1%, the viability, T/C [10] was 50.2% and the viability, T/C (second compound 0.1 µM, first compound 0.316 µM) was 57%. For the same molecule, the viability, T/C (second compound 0.1 µM, first compound 1 µM) was 49%, the viability, T/C (second compound 0.1 µM, first compound 3.16 µM) was 38.3% and the viability, T/C (second compound 0.1 µM, first compound 10 µM) was 29.7%. It also gave a viability, T/C [11] of 22.3%, a viability, T/C [12] of 17.4% and a viability, T/C (second compound 0.316 µM, first compound 0.316 µM) of 20.7%. The viability, T/C (second compound 0.316 µM, first compound 1 µM) was 17.8%, the viability, T/C (second compound 0.316 µM, first compound 3.16 µM) was 15.3% and the viability, T/C (second compound 0.316 µM, first compound 10 µM) was 17.5%. The viability, T/C [13] was 23.3%, the viability, T/C [14] was 18.6% and the viability, T/C (second compound 1 µM, first compound 0.316 µM) was 17.9%. It also gave a viability, T/C (second compound 1 µM, first compound 1 µM) of 21.3%, a viability, T/C (second compound 1 µM, first compound 3.16 µM) of 20% and a viability, T/C (second compound 1 µM, first compound 10 µM) of 17.4%. For the same molecule, the viability, T/C [15] was 19.6%, the viability, T/C [16] was 21.1% and the viability, T/C (second compound 3.16 µM, first compound 0.316 µM) was 22.2%. The viability, T/C (second compound 3.16 µM, first compound 1 µM) was 19.4%, the viability, T/C (second compound 3.16 µM, first compound 3.16 µM) was 22% and the viability, T/C (second compound 3.16 µM, first compound 10 µM) was 18.4%. For the same molecule, the viability, T/C [17] was 18.7%, the viability, T/C [18] was 19.8% and the viability, T/C (second compound 10 µM, first compound 0.316 µM) was 21.8%. For the same molecule, the viability, T/C (second compound 10 µM, first compound 1 µM) was 19.8%, the viability, T/C (second compound 10 µM, first compound 3.16 µM) was 18.9% and the viability, T/C (second compound 10 µM, first compound 10 µM) was 15.2%.
For CN1CCN(c2cc(C(=O)Nc3cc4cc(-c5cnn(C)c5)ccc4cn3)ccn2)CC1, the viability, T/C (compound 0.0316 µM) was 102% [middle of 12 runs], the viability, T/C (compound 0.1 µM) was 103% [middle of 12 runs] and the viability, T/C (compound 0.316 µM) was 25.7% [middle of 12 runs]. The viability, T/C (compound 1 µM) was 1.33% [middle of 12 runs], the viability, T/C (compound 3.16 µM) was 0.96% [middle of 11 runs] and the viability, T/C (compound 10 µM) was 0.49% [middle of 11 runs]. The IC50 (compound alone, run of 07/31/2023) was 220 nM [middle of 9 runs].
In the case of CC(=O)O[C@H]1C(=O)[C@@]2(C)[C@H]([C@H](OC(=O)c3ccccc3)[C@]3(O)C[C@H](OC(=O)[C@H](O)[C@@H](NC(=O)c4ccccc4)c4ccccc4)C(C)=C1C3(C)C)[C@]1(OC(C)=O)CO[C@@H]1C[C@@H]2O, the viability, T/C (compound 0.0316 µM) is reported as 7.92% and 6.8%, the viability, T/C (compound 0.1 µM) is reported as 9.5% and 7.41% and the viability, T/C (compound 0.316 µM) is reported as 10.5% and 9.32%. For the same molecule, the viability, T/C (compound 1 µM) was 8.91% and 8.31%, the viability, T/C (compound 3.16 µM) was 10.3% and 8.38% and the viability, T/C (compound 10 µM) was 14.3% and 11.1%. For the same molecule, the IC50 (curve of compound) was < 31.6 nM.
Cn1ncnc1[C@H]1c2n[nH]c(=O)c3cc(F)cc(c23)N[C@@H]1c1ccc(F)cc1 + CN1CCN(c2cc(C(=O)Nc3cc4cc(-c5cnn(C)c5)ccc4cn3)ccn2)CC1 was tested, and the IC50 [1] was > 100 nM, the IC50 [2] was 50 nM and the IC50 [3] was < 0.316 nM. The IC50 [4] was < 0.316 nM, the IC50 [5] was < 0.316 nM and the IC50 [6] was < 0.316 nM. For the same molecule, the viability, T/C (second compound 0.0316 µM, first compound 0.000316 µM) was 90.4%, the viability, T/C (second compound 0.0316 µM, first compound 0.001 µM) was 77.8% and the viability, T/C (second compound 0.0316 µM, first compound 0.00316 µM) was 74.8%. The viability, T/C (second compound 0.0316 µM, first compound 0.01 µM) was 65.6%, the viability, T/C [7] was 55.4% and the viability, T/C [8] was 52.1%. It also gave a viability, T/C (second compound 0.1 µM, first compound 0.000316 µM) of 88.1%, a viability, T/C (second compound 0.1 µM, first compound 0.001 µM) of 81.2% and a viability, T/C (second compound 0.1 µM, first compound 0.00316 µM) of 70.4%. It also gave a viability, T/C (second compound 0.1 µM, first compound 0.01 µM) of 58.9%, a viability, T/C [9] of 53.9% and a viability, T/C [10] of 46%. For the same molecule, the viability, T/C (second compound 0.316 µM, first compound 0.000316 µM) was 21.2%, the viability, T/C (second compound 0.316 µM, first compound 0.001 µM) was 23.7% and the viability, T/C (second compound 0.316 µM, first compound 0.00316 µM) was 25.9%. For the same molecule, the viability, T/C (second compound 0.316 µM, first compound 0.01 µM) was 22.4%, the viability, T/C [11] was 21.9% and the viability, T/C [12] was 18.6%. It also gave a viability, T/C (second compound 1 µM, first compound 0.000316 µM) of 0.86%, a viability, T/C (second compound 1 µM, first compound 0.001 µM) of 0.77% and a viability, T/C (second compound 1 µM, first compound 0.00316 µM) of 1.08%. The viability, T/C (second compound 1 µM, first compound 0.01 µM) was 0.85%, the viability, T/C [13] was 0.82% and the viability, T/C [14] was 1.53%. The viability, T/C (second compound 3.16 µM, first compound 0.000316 µM) was 0.25%, the viability, T/C (second compound 3.16 µM, first compound 0.001 µM) was 0.59% and the viability, T/C (second compound 3.16 µM, first compound 0.00316 µM) was 1.07%. The viability, T/C (second compound 3.16 µM, first compound 0.01 µM) was 0.33%, the viability, T/C [15] was 0.69% and the viability, T/C [16] was 0.48%. For the same molecule, the viability, T/C (second compound 10 µM, first compound 0.000316 µM) was 0.45%, the viability, T/C (second compound 10 µM, first compound 0.001 µM) was 1.52% and the viability, T/C (second compound 10 µM, first compound 0.00316 µM) was 0.56%. For the same molecule, the viability, T/C (second compound 10 µM, first compound 0.01 µM) was 1.45%, the viability, T/C [17] was 0.51% and the viability, T/C [18] was 0.39%.
